Assay results: US20250340551A1, “SMALL MOLECULE MODULATORS OF STAT6” (Gilead Sciences, Inc., priority 2024, published 2025)

Tested on: Eotaxin-3 (CCL26) release in human whole blood stimulated with IL-4
Assay: Human whole blood eotaxin-3 assay (IL-4 stimulated, Eotaxin-3 release)
Format: cell-based
Details: Homo sapiens; for EC50: Hec50, 48 h; for Emax: 48 h
Procedure: This was a human whole blood assay using recombinant human Interleukin 4 to stimulate the blood and measuring the ability of the test compounds to inhibit eotaxin-3 release. The biological activities of the test compounds have been tested in human whole blood stimulated with IL-4 measuring Eotaxin-3 release. The test compounds were added to 384 well clear flat-bottom plate in a 4-fold serial dilution in triplicates using a liquid handler. Human whole blood stabilized in lithium-heparin tubes was added in a volume of 65 μL per well, resulting in a final DMSO concentration of 0.5%. The plate is incubated for 2 h at 37° C. under 5% CO2/95% air. Subsequently, 5 μL of recombinant human IL-4 (R&D Systems, cat #204-ILB) was added to the wells to a final concentration of 400 pM. The plate was incubated for 48 h at 37° C. under 5% CO2/95% air. The plate was spun down for 10 minutes at 500×g and 20 μL supernatant was harvested and transferred to a 384 well v-bottom plate using a liquid handler and stored at −20° C. until further analysis. 10 μL supernatant was used to measure the level of Eotaxin-3 (CCL26) using Human Eotaxin-3 MSD kit from Mesocsale (Cat #K251UEK-4). The assay was performed according to the manufacture instructions.
The data from the human whole blood eotaxin-3 assay is shown below for Examples 1u2, 1x1, 1af26, and 1af36 (where the effect in % is plotted against the test concentration in M on a log-scale).

Row | Compound | EC50 [nM] | Emax [%]
1 | CNc1ccc(-c2ccnc3c2cc(CN2CCN(c4ccc(C(=O)N(C)C)cn4)CC2)n3C)nn1 [Example 1p9, N,N-Dimethyl-6-[4-[[1-methyl-4-[6-(methylamino)pyridazin-3-yl]pyrrolo[2,3-b]pyridin-2-yl]methyl]piperazin-1-yl]pyridine-3-carboxamide] | – | < 20
2 | [2H]C([2H])([2H])N(C(=O)c1ccc(C2=CCN([C@@H](C)c3cc4c(-c5cnc(N)cc5F)ccnc4n3C)CC2)cc1)C([2H])([2H])[2H] [Example 1af55, (S)-4-(1-(1-(4-(6-Amino-4-fluoropyridin-3-yl)-1-methyl-1H-pyrrolo[2,3-b]pyridin-2-yl)ethyl)-1,2,3,6-tetrahydropyridin-4-yl)-N,N-bis(methyl-d3)benzamide] | 426 | –
3 | [2H]C([2H])([2H])N(C(=O)c1cnc(C2=CCN(Cc3cc4c(-c5ccc(N)nc5C#N)ccnc4n3C)CC2)nc1)C([2H])([2H])[2H] [Example 1z15, 2-(1-((4-(6-amino-2-cyanopyridin-3-yl)-1-methyl-1H-pyrrolo[2,3-b]pyridin-2-yl)methyl)-1,2,3,6-tetrahydropyridin-4-yl)-N,N-bis(methyl-d3)pyrimidine-5-carboxamide] | – | < 20
4 | Cc1cc(C(=O)N(C)C)cc(F)c1C1=CCN([C@H](C)c2cc3c(-c4ccc(N)nc4)ccnc3n2C)CC1 [Example 1z30, (R)-4-(1-(1-(4-(6-aminopyridin-3-yl)-1-methyl-1H-pyrrolo[2,3-b]pyridin-2-yl)ethyl)-1,2,3,6-tetrahydropyridin-4-yl)-3-fluoro-N,N,5-trimethylbenzamide] | 10.2 | –
5 | [2H]C([2H])([2H])N(C(=O)c1ccc(C2CCN([C@@H](C)c3cc4c(-c5ccc(N)c(C)n5)ccnc4n3C)CC2)cc1)C([2H])([2H])[2H] [Example 1af66, (S)-4-(1-(1-(4-(5-amino-6-methylpyridin-2-yl)-1-methyl-1H-pyrrolo[2,3-b]pyridin-2-yl)ethyl)piperidin-4-yl)-N,N-bis(methyl-d3)benzamide] | 611 | –
6 | CN(C)C(=O)c1ncc(C2=CCN(Cc3cc4c(-c5ccc(N)nn5)ccnc4n3C)CC2)cn1 [Example 1z21, 5-(1-((4-(6-aminopyridazin-3-yl)-1-methyl-1H-pyrrolo[2,3-b]pyridin-2-yl)methyl)-1,2,3,6-tetrahydropyridin-4-yl)-N,N-dimethylpyrimidine-2-carboxamide] | – | 20 to 30
7 | [2H]C([2H])([2H])N(C(=O)c1cc(C)c(C2=CCN([C@@H](C)c3cc4c(-c5ccc(N)nn5)ccnc4n3C)CC2)c(F)c1)C([2H])([2H])[2H] [Example 1af81, (S)-4-(1-(1-(4-(6-aminopyridazin-3-yl)-1-methyl-1H-pyrrolo[2,3-b]pyridin-2-yl)ethyl)-1,2,3,6-tetrahydropyridin-4-yl)-3-fluoro-5-methyl-N,N-bis(methyl-d3)benzamide] | 12.6 | –
8 | CN(C)C(=O)c1ccc(C2=CCN(Cc3cc4c(-c5ccc(N)nc5)ccnc4n3C)CC2)nn1 [Example 1z3, 6-(1-((4-(6-aminopyridin-3-yl)-1-methyl-1H-pyrrolo[2,3-b]pyridin-2-yl)methyl)-1,2,3,6-tetrahydropyridin-4-yl)-N,N-dimethylpyridazine-3-carboxamide] | – | < 20
9 | Cc1cc(C2=CCN(Cc3cc4c(-c5ccc(N)nc5)ccnc4n3C)CC2)ccc1C(=O)N(C)C [Example 1z5, 4-(1-((4-(6-aminopyridin-3-yl)-1-methyl-1H-pyrrolo[2,3-b]pyridin-2-yl)methyl)-1,2,3,6-tetrahydropyridin-4-yl)-N,N,2-trimethylbenzamide] | – | 30 to 40
10 | Cc1cc(C(=O)N(C)C)cc(F)c1C1=CCN([C@@H](C)c2cc3c(-c4ccc(N)nc4)ccnc3n2C)CC1 [Example 1z29, (S)-4-(1-(1-(4-(6-aminopyridin-3-yl)-1-methyl-1H-pyrrolo[2,3-b]pyridin-2-yl)ethyl)-1,2,3,6-tetrahydropyridin-4-yl)-3-fluoro-N,N,5-trimethylbenzamide] | 1060 | –
11 | [2H]C([2H])([2H])N(C(=O)c1cnc(C2=CCN(Cc3cc4c(-c5ccc(N)nc5)ccnc4n3C)CC2)cn1)C([2H])([2H])[2H] [Example 1af79, 5-(1-((4-(6-Aminopyridin-3-yl)-1-methyl-1H-pyrrolo[2,3-b]pyridin-2-yl)methyl)-1,2,3,6-tetrahydropyridin-4-yl)-N,N-bis(methyl-d3)pyrazine-2-carboxamide] | – | 20 to 30
12 | CN(C)C(=O)c1ccc(C2CCN(Cc3cc4c(-c5ccc(N)nn5)ccnc4n3C)CC2)cc1 [Example 1z22, 4-(1-((4-(6-aminopyridazin-3-yl)-1-methyl-1H-pyrrolo[2,3-b]pyridin-2-yl)methyl)piperidin-4-yl)-N,N-dimethylbenzamide] | – | < 20

More lines, main results first:

Row | EC50 [nM] | Compound | Emax [%]
13 | 12.9 | CNc1ccc(-c2ccnc3c2cc([C@@H](C)N2CC=C(c4c(C)cc(C(=O)N(C)C)cc4F)CC2)n3C)cn1 [Example 1z38, (R)-3-fluoro-N,N,5-trimethyl-4-(1-(1-(1-methyl-4-(6-(methyl-amino)pyridin-3-yl)-1H-pyrrolo[2,3-b]pyridin-2-yl)ethyl)-1,2,3,6-tetrahydropyridin-4-yl)benzamide] | –
14 | 439 | CNc1ccc(-c2ccnc3c2cc([C@H](C)N2CC=C(c4c(C)cc(C(=O)N(C)C)cc4F)CC2)n3C)cn1 [Example 1z37, (S)-3-fluoro-N,N,5-trimethyl-4-(1-(1-(1-methyl-4-(6-(methylamino)pyridin-3-yl)-1H-pyrrolo[2,3-b]pyridin-2-yl)ethyl)-1,2,3,6-tetrahydropyridin-4-yl)benzamide] | –
15 | 473 | CN(C)C(=O)c1ccc(C2=CCN(Cc3cc4c(-c5ccc(N)nc5)ccnc4n3C)CC2)c(C#N)c1 [Example 1z10, 4-(1-((4-(6-aminopyridin-3-yl)-1-methyl-1H-pyrrolo[2,3-b]pyridin-2-yl)methyl)-1,2,3,6-tetrahydropyridin-4-yl)-3-cyano-N,N-dimethylbenzamide] | –
16 | 97.3 | CN(C)C(=O)c1cc(F)c(C2=CCN(Cc3cc4c(-c5ccc(N)nc5C#N)ccnc4n3C)CC2)c(F)c1 [Example 1z42, 4-(1-((4-(6-amino-2-cyanopyridin-3-yl)-1-methyl-1H-pyrrolo[2,3-b]pyridin-2-yl)methyl)-1,2,3,6-tetrahydropyridin-4-yl)-3,5-difluoro-N,N-dimethylbenzamide] | –
17 | 431 | Cc1cc(C(=O)N(C)C)cc(F)c1C1=CCN([C@H](C)c2cc3c(-c4ccc(N)cn4)ccnc3n2C)CC1 [Example 1z33, (R)-4-(1-(1-(4-(5-aminopyridin-2-yl)-1-methyl-1H-pyrrolo[2,3-b]pyridin-2-yl)ethyl)-1,2,3,6-tetrahydropyridin-4-yl)-3-fluoro-N,N,5-trimethylbenzamide] | –
18 | 214 | CNc1ccc(-c2ccnc3c2cc(CN2CC=C(c4c(F)cc(C(=O)N(C)C)cc4Cl)CC2)n3C)nn1 [Example 1p20, 3-Chloro-5-fluoro-N,N-dimethyl-4-[1-[[1-methyl-4-[6-(methylamino)pyridazin-3-yl]pyrrolo[2,3-b]pyridin-2-yl]methyl]-3,6-dihydro-2H-pyridin-4-yl]benzamide] | –
19 | 46.3 | [2H]C([2H])([2H])N(C(=O)c1cnc(C2=CCN(Cc3cc4c(-c5ccc(N)nc5)ccnc4n3C)CC2)nc1)C([2H])([2H])[2H] [Example 1af73, 2-(1-((4-(6-Aminopyridin-3-yl)-1-methyl-1H-pyrrolo[2,3-b]pyridin-2-yl)methyl)-1,2,3,6-tetrahydropyridin-4-yl)-N,N-bis(methyl-d3)pyrimidine-5-carboxamide] | –
20 | 260 | [2H]C([2H])([2H])N(C(=O)c1ccc(C2=CCN([C@@H](C)c3cc4c(-c5ccc(N)nn5)ccnc4n3C)CC2)cc1)C([2H])([2H])[2H] [Example 1af59, (S)-4-(1-(1-(4-(6-aminopyridazin-3-yl)-1-methyl-1H-pyrrolo[2,3-b]pyridin-2-yl)ethyl)-1,2,3,6-tetrahydropyridin-4-yl)-N,N-bis(methyl-d3)benzamide] | –
21 | 1530 | CNc1ccc(-c2ccnc3c2cc(CN2CC=C(c4ccc(C(=O)N(C)C)cc4C(F)(F)F)CC2)n3C)nn1 [Example 1p15, N,N-Dimethyl-4-[1-[[1-methyl-4-[6-(methylamino)pyridazin-3-yl]pyrrolo[2,3-b]pyridin-2-yl]methyl]-3,6-dihydro-2H-pyridin-4-yl]-3-(trifluoromethyl)benzamide] | –
22 | 4530 | CNc1ccc(-c2ccnc3c2cc(CN2CC=C(c4ncc(C(=O)N(C)C)cc4C)CC2)n3C)nn1 [Example 1p11, N,N,5-Trimethyl-6-[1-[[1-methyl-4-[6-(methylamino)pyridazin-3-yl]pyrrolo[2,3-b]pyridin-2-yl]methyl]-3,6-dihydro-2H-pyridin-4-yl]pyridine-3-carboxamide] | –
23 | 38.6 | CNc1ccc(-c2ccnc3c2cc(C(C)N2CC=C(c4c(C)cc(C(=O)N(C)C)cc4F)CC2)n3C)cn1 (stereo not drawn) [Example 1z36, 3-fluoro-N,N,5-trimethyl-4-(1-(1-(1-methyl-4-(6-(methylamino)pyridin-3-yl)-1H-pyrrolo[2,3-b]pyridin-2-yl)ethyl)-1,2,3,6-tetrahydropyridin-4-yl)benzamide] | –
24 | 62.8 | Cc1cc(C(=O)N(C)C)cc(F)c1C1=CCN(C(C)c2cc3c(-c4ccc(N)cn4)ccnc3n2C)CC1 (stereo not drawn) [Example 1z31, 4-(1-(1-(4-(5-aminopyridin-2-yl)-1-methyl-1H-pyrrolo[2,3-b]pyridin-2-yl)ethyl)-1,2,3,6-tetrahydropyridin-4-yl)-3-fluoro-N,N,5-trimethylbenzamide] | –
